Measured values reported in ChEMBL document CHEMBL1201862, “PubChem BioAssay data set” (2004).
Calls of active or inactive are those of the source.

Legend:
[1] = target: Heat shock protein HSP 90-alpha (Homo sapiens, UniProt P07900); assay type: functional, organism-based
[2] = HIV-1 Vif–A3G interaction blockers – biochemical, TR-FRET, GST-Vif 1-94, biotin-A3G peptide, dose response retest, primary screen (AID 1117319); assay type: functional;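 further: TR-FRET signal of purified GST-Vif binding a biotinylated A3G peptide; inhibitors lower the FRET signal by blocking Vif and A3G binding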
[3] = target: T1, DNA repair and recombination protein RAD54-like (Homo sapiens, UniProt Q92698); experiment: RAD54 Holliday junction migration blockers – biochemical, fluorescence, cherry-picked samples, dose series, confirmation (AID 651657); assay type: functional
T1 sequence (Q92698 whole entry): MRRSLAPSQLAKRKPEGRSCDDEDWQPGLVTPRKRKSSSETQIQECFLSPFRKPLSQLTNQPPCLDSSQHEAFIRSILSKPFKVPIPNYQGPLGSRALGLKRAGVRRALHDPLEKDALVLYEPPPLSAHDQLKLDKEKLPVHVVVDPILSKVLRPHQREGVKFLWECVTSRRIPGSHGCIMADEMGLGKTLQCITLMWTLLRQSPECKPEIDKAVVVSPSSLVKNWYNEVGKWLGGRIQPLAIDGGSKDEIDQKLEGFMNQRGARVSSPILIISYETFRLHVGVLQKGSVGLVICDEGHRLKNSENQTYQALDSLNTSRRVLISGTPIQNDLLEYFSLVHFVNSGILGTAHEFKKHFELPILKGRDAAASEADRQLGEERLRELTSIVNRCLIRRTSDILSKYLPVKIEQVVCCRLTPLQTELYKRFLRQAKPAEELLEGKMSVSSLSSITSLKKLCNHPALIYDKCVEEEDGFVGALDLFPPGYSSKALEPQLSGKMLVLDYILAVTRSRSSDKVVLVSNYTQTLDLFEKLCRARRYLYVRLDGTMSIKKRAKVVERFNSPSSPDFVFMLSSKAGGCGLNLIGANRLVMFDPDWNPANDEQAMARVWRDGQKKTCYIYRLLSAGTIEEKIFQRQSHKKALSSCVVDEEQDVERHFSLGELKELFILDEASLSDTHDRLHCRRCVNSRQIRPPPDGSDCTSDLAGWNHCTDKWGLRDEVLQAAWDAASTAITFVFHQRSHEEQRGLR

[4] = target: T2, DNA repair protein RAD52 homolog (Homo sapiens, UniProt P43351); assay type: functional, biochemical
T2 sequence (P43351 whole entry): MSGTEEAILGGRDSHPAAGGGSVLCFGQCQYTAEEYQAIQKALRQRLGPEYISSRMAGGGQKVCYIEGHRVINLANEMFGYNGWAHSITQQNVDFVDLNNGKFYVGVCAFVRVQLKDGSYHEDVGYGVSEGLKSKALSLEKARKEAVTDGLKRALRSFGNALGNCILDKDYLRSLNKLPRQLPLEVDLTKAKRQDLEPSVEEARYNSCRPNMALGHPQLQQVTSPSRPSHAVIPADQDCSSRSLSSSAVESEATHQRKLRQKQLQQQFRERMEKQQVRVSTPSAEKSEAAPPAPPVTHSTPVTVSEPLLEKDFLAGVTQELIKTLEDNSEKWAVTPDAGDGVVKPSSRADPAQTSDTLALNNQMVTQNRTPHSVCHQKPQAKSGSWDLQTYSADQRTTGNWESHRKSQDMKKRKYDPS

[5] = target: T3, Carboxy-terminal domain RNA polymerase II polypeptide A small phosphatase 1 (Homo sapiens, UniProt Q9GZU7); experiment: CTDSP1 inhibitors, concentration-response, biochemical, absorbance readout, ultra-high-throughput screen actives (AID 540297); assay type: functional
T3 sequence (Q9GZU7 whole entry): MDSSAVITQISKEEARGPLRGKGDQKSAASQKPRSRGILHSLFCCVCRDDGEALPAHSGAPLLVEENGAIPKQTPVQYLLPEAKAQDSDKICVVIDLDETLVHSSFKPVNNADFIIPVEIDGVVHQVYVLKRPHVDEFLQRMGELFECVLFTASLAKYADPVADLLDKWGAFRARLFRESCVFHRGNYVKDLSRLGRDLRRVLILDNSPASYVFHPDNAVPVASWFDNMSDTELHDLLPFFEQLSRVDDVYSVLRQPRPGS

Albumin = Albumin (Bos taurus, UniProt P02769); experiment: Counterscreen for inhibitors of T-cell receptor (TCR)-CD3 interaction: Fluorescence-based biochemical high throughput dose response assay to identify inhibitors of T-cell receptor (TCR)-CD3 interaction using a TAMRA-labeled BSA probe.; assay type: functional
Caspase-6 = target: T4, Caspase-6 (Homo sapiens, UniProt P55212); experiment: inhibition of CASP6 peptide cleavage – biochemical, VEID-R110 fluorescence, cherry-pick, dose response (AID 720632)
T4 sequence (P55212 whole entry): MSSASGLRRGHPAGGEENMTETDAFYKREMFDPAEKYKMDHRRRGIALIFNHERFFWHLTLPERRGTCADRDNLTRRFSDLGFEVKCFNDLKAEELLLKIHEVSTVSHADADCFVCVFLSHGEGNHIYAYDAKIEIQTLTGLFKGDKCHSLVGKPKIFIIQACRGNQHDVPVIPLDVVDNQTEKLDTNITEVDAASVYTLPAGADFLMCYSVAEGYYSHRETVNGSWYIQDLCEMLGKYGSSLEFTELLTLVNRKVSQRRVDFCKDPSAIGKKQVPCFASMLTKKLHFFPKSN

[6] = Dd2 parasite growth inhibition in erythrocytes – SYBR Green, dry powder samples, set 9, dose response (AID 1159568); assay type: functional, cell-based
HEK293 = experiment: cells; assay type: functional, cell-based; conditions: Homo sapiens
[7] = target: T5, Nuclear receptor subfamily 0 group B member 1 (Homo sapiens, UniProt P51843); experiment: Luminescence-based cell-based high throughput dose response assay for inhibitors of the orphan nuclear receptor subfamily 0, group B, member 1 (DAX1; NR0B1). [Related pubchem assays (depositor defined):AID504766, AID504790]; assay type: functional
T5 sequence (P51843 whole entry): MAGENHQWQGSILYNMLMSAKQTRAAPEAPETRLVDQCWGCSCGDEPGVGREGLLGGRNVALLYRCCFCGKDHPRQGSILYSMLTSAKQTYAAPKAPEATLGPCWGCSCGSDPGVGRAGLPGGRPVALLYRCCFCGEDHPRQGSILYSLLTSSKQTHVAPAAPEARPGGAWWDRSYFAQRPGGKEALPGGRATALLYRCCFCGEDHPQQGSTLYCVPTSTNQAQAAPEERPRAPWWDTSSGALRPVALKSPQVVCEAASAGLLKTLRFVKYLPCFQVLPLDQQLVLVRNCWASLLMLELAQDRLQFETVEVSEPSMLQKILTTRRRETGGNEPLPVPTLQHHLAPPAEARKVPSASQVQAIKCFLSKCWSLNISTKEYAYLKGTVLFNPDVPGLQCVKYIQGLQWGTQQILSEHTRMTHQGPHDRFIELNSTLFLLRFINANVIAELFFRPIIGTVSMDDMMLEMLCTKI

[8] = Trypanosoma cruzi growth suppression in host cells – NIH3T3 host cells, beta-gal luminescence, confirmation (AID 2044); assay type: functional, cell-based;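 further: intracellular parasites grown in NIH/3T3 mouse fibroblasts as host cells; luminescent beta-galactosidase reporter signal from transgenic T. cruzi replicating inside host cells; inhibitors lower the luminescence signal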
[9] = NIH3T3 cell viability loss – ATP luminescence, mouse fibroblasts, counter-screen, dose response (AID 2010); assay type: functional, cell-based;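 further: cells exposed to compound for about 90 hours before reading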

Albumin, sequence (P02769 whole entry): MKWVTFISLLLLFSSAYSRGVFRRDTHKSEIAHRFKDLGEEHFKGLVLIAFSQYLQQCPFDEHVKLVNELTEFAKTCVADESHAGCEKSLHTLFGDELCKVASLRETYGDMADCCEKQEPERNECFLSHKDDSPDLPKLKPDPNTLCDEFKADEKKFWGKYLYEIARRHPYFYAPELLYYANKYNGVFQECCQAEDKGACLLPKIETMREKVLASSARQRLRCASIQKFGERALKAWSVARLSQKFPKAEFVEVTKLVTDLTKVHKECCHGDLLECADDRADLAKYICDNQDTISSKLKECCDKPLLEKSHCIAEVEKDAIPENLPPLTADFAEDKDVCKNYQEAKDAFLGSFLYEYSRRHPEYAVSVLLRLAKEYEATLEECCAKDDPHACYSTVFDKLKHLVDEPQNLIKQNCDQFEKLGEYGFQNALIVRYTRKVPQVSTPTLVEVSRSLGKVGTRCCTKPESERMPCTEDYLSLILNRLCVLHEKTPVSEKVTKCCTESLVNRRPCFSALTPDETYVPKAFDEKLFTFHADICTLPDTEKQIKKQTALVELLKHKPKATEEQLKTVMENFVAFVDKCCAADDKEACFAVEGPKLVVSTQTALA

SMILES: Nc1cccc(Oc2c(F)c(F)c(Oc3cccc(N)c3)c(F)c2F)c1
- AC50 [1]: 7.55 µM (active)

SMILES: COc1ccc(NC(=O)C2CCCN2S(=O)(=O)c2cccc3cccnc23)c(OC)c1 (stereo not given)
- AC50 [1]: 1.49 µM (active)
- IC50 [2]: > 100 µM (active)

SMILES: Cc1cc(N2CCN(C)CC2)nc2ccc(NC(S)=NCCCN3CCN(C)CC3)cc12
- AC50 [3]: 24.6 µM (active)
- AC50 [4]: 3.59 µM (active)

SMILES: O=C(O)c1cnc2c([N+](=O)[O-])cccc2c1O
- IC50 [5]: 5.65 µM (active)
- IC50 (Albumin): > 94 µM (inactive)
- AC50 (Caspase-6): 5.77 µM (active)

SMILES: COc1cccc(S(=O)(=O)N2CCCCN3[C@H](CO)[C@H](c4ccc(C#CCC(C)C)cc4)[C@H]3C2)c1
- AC50 [6]: 2.41 µM (active)

SMILES: CCOc1ccc(-c2nnc(-c3ccco3)o2)cc1OCC
- IC50 (HEK293): > 67.5 µM (inactive)
- IC50 [7]: > 67.5 µM (inactive)

SMILES: Cc1ccc2nc3c(c(Nc4ccc(O)cc4)c2c1)CCC3
- EC50 [8]: 1.06 µM (active)
- EC50 [9]: 8.88 µM (active)
- AC50 [3]: 39 µM (active)
- AC50 [4]: 20.5 µM (active)
